Here are results for three compounds from patent US7083779B2 (Council of Scientific and Industrial Research, priority 2003, dated 2006).

Series [1] deals with cultured fibroblasts.
The test system of series [2] is P. falciparum. The note with it: cited from earlier work.

SMILES strings stand for the structures.

Regarding `[H]/N=C(\N/C(=N/[H])NCCCCCCNC(=N)NC(=N)Nc1ccc(Cl)cc1)Nc1ccc(Cl)cc1` [Chlorhexidine], in series [1], the “Reversibility of effect on cultured fibroblasts (cell viability and protein quantification)” value is given as “damage the cells irreversibly”. Moreover, the “Cytotoxicity (cell viability)” value in series [1] (0.001 %) was “cytotoxic even at 0.001%”.
As to `CC(=O)O[C@@H]1C[C@H]2C(C)(C)C(=O)CC[C@]2(C)[C@H]2CC[C@@]3(C)[C@H](c4ccoc4)OC(=O)[C@H]4O[C@]43[C@@]21C` [dihydrogedunin], the “LC50 against P. falciparum” value in series [2] was 0.72 to 1.74 µg/mL.
For `CC(=O)O[C@@H]1C[C@H]2C(C)(C)C(=O)C=C[C@]2(C)[C@H]2CC[C@@]3(C)[C@H](c4ccoc4)C(=O)[C@H]4O[C@]43[C@@]21C` [nimbinin], the “LC50 against P. falciparum” value in series [2] is 0.72 to 1.74 µg/mL.
